Results reported in PubChem BioAssay AID248 (DTP/NCI, 2004).
“And” between values parts separate entries of the source, which are not always exact repeats. Equal values may be shown once. Toxic doses and inconclusive results are not listed. Cut-off read from the data, not from the text of the source: active = T/C of 150% or more; inactive = T/C below 125%.

Tested on: L1210 leukemia ip in BDF1 mice, survival T/C
Experiment: NCI In Vivo Anticancer Drug Screen. Data for tumor model L1210 Leukemia (intraperitoneal) in B6D2F1 (BDF1) mice
Conditions: endpoint: mean survival time, higher = longer survival
Method in brief: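 Read-out is survival time, reported as the treated-group measurement over the vehicle-control measurement.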

[1] = dose: 100.0 mg/kg/injection, schedule: Q01DX009 (ip), vehicle: Klucel (hydroxypropylcellulose) (HPC)
[2] = dose: 200.0 mg/kg/injection, schedule: Q01DX009 (ip), vehicle: Klucel (hydroxypropylcellulose) (HPC)
[3] = dose: 400.0 mg/kg/injection, schedule: Q01DX009 (ip), vehicle: Klucel (hydroxypropylcellulose) (HPC)
[4] = dose: 100.0 mg/kg/injection, schedule: Q04DX002 (ip), vehicle: saline with Tween-80
[5] = dose: 200.0 mg/kg/injection, schedule: Q04DX002 (ip), vehicle: saline with Tween-80
[6] = dose: 400.0 mg/kg/injection, schedule: Q04DX002 (ip), vehicle: saline with Tween-80
[7] = dose: 100.0 mg/kg/injection, schedule: Q04DX003 (ip), vehicle: Klucel (hydroxypropylcellulose) (HPC)
[8] = dose: 200.0 mg/kg/injection, schedule: Q04DX003 (ip), vehicle: Klucel (hydroxypropylcellulose) (HPC)
[9] = dose: 400.0 mg/kg/injection, schedule: Q04DX003 (ip), vehicle: Klucel (hydroxypropylcellulose) (HPC)
[10] = dose: 100.0 mg/kg/injection, schedule: Q04DX003 (ip), vehicle: saline
[11] = dose: 200.0 mg/kg/injection, schedule: Q04DX003 (ip), vehicle: saline
[12] = dose: 100.0 mg/kg/injection, schedule: Q01DX009 (ip), vehicle: saline with Tween-80
[13] = dose: 200.0 mg/kg/injection, schedule: Q01DX009 (ip), vehicle: saline with Tween-80
[14] = dose: 100.0 mg/kg/injection, schedule: Q01DX001 (ip), vehicle: Klucel (hydroxypropylcellulose) (HPC)
[15] = dose: 100.0 mg/kg/injection, schedule: Q04DX002 (ip), vehicle: saline
[16] = dose: 200.0 mg/kg/injection, schedule: Q04DX002 (ip), vehicle: saline
[17] = dose: 100.0 mg/kg/injection, schedule: Q01DX001 (ip), vehicle: saline
[18] = dose: 200.0 mg/kg/injection, schedule: Q01DX001 (ip), vehicle: saline
[19] = dose: 400.0 mg/kg/injection, schedule: Q01DX001 (ip), vehicle: saline
[20] = dose: 400.0 mg/kg/injection, schedule: Q04DX003 (ip), vehicle: saline

Measured: T/C

CCCCCCCCCCCCCCCCCC1=Nc2cc(C)c(C)cc2NC(=O)C1
inactive: dose: 100.0 mg/kg/injection, schedule: Q01DX001 (ip), vehicle: carboxymethylcellulose (CMC) 93 % of control | dose: 200.0 mg/kg/injection, schedule: Q01DX001 (ip), vehicle: carboxymethylcellulose (CMC) 88 % of control | dose: 400.0 mg/kg/injection, schedule: Q01DX001 (ip), vehicle: carboxymethylcellulose (CMC) 86 % of control

CC1(CCCCCBr)OCCO1
inactive: [1] 97 % of control | [2] 100 % of control | [3] 94 % of control

C=C(C)C1C/C(=N\O)C(C)/C(=N/O)C1 (centres undefined)
inactive: [4] 100 % of control | [5] 96 % of control | [6] 93 % of control

N#CC12CC=CCC1CCC2=N (centres undefined)
inactive: dose: 12.5 mg/kg/injection, schedule: Q01DX009 (ip), vehicle: Klucel (hydroxypropylcellulose) (HPC) 96 % of control | dose: 25.0 mg/kg/injection, schedule: Q01DX009 (ip), vehicle: Klucel (hydroxypropylcellulose) (HPC) 89 % of control

CC(=O)NC(N)=NCCCC(N)C(=O)O (centres undefined)
inactive: dose: 75.0 mg/kg/injection, schedule: Q04DX003 (ip), vehicle: Klucel (hydroxypropylcellulose) (HPC) 91 % of control | dose: 150.0 mg/kg/injection, schedule: Q04DX003 (ip), vehicle: Klucel (hydroxypropylcellulose) (HPC) 94 % of control | dose: 300.0 mg/kg/injection, schedule: Q04DX003 (ip), vehicle: Klucel (hydroxypropylcellulose) (HPC) 94 % of control

O=[N+]([O-])c1ccc(C(Br)C(Br)c2ccccc2Cl)cc1 (centres undefined)
inactive: [1] 96 % of control | [7] 110 % of control | [2] 98 % of control | [8] 100 % of control | [3] 93 % of control | [9] 94 % of control

N=C(N)SCCN1CCCCC1
inactive: dose: 75.0 mg/kg/injection, schedule: Q01DX001 (ip), vehicle: acetone 102 % of control | dose: 150.0 mg/kg/injection, schedule: Q01DX001 (ip), vehicle: acetone 100 % of control

CSc1ncc(CO)c(Nc2ccccc2Cl)n1
inactive: [7] 103 % of control | [8] 103 % of control | [9] 95 % of control

O=P(O)(CO)CO
inactive: [10] 109 % of control | [11] 95 % of control

O=[N+]([O-])c1ccc(N/N=C(\CBr)c2ccccc2)c([N+](=O)[O-])c1
inactive: [12] 94 % of control | [13] 95 % of control | dose: 400.0 mg/kg/injection, schedule: Q01DX009 (ip), vehicle: saline with Tween-80 94 % of control

COC(=O)c1cc([N+](=O)[O-])cc2ccccc12
inactive: [1] 99 % of control | [7] 105 % of control | [2] 96 % of control | [8] 94 % of control | [9] 97 % of control

CC(=S)NC(=O)Nc1cccc2ccccc12
inactive: [14] 88 % of control | dose: 200.0 mg/kg/injection, schedule: Q01DX001 (ip), vehicle: Klucel (hydroxypropylcellulose) (HPC) 91 % of control

C=CCNC(=S)N(Cc1ccccc1)Cc1ccccc1
inactive: dose: 100.0 mg/kg/injection, schedule: Q04DX002 (ip), vehicle: Klucel (hydroxypropylcellulose) (HPC) 105 % of control | dose: 200.0 mg/kg/injection, schedule: Q04DX002 (ip), vehicle: Klucel (hydroxypropylcellulose) (HPC) 101 % of control | dose: 400.0 mg/kg/injection, schedule: Q04DX002 (ip), vehicle: Klucel (hydroxypropylcellulose) (HPC) 94 % of control

CCN(CC)C(=O)C1CCCCC1C (centres undefined)
inactive: [15] 111 % of control | [16] 105 % of control

c1ccc(SCc2ccncc2)nc1
inactive: [17] 100 % of control | [18] 92 % of control | [19] 88 % of control

CS(=O)(=O)OCC1C2CCC(CC2)C1COS(C)(=O)=O (centres undefined)
inactive: [7] 100 % of control | [8] 103 % of control | [9] 102 % of control

O=C(Cc1ccc2c(c1)OCO2)c1cn(C(=O)Cc2ccc3c(c2)OCO3)c2ccccc12
inactive: dose: 50.0 mg/kg/injection, schedule: Q01DX001 (ip), vehicle: saline 108 % of control | [17] 102 % of control | [18] 93 % of control | [19] 96 % of control

NS(=O)(=O)CS(N)(=O)=O
inactive: [17] 100 % of control | [18] 96 % of control | [19] 96 % of control

Cc1cccc(Nc2cc(N)nc(N)n2)c1
inactive: dose: 50.0 mg/kg/injection, schedule: Q01DX Z (ip), vehicle: methylcellulose (MC) 96 % of control

CCOC(=O)C1C(=O)C2CCc3c(ccc4ccccc34)N2C1=O (centres undefined)
inactive: [7] 98 % of control | [8] 104 % of control

O=C(OC12CCCC1CC2)c1ccc([N+](=O)[O-])cc1 (centres undefined)
inactive: dose: 100.0 mg/kg/injection, schedule: Q04DX003 (ip), vehicle: saline with Tween-80 91 % of control | dose: 200.0 mg/kg/injection, schedule: Q04DX003 (ip), vehicle: saline with Tween-80 103 % of control | dose: 400.0 mg/kg/injection, schedule: Q04DX003 (ip), vehicle: saline with Tween-80 100 % of control

COC(=O)C1CCCCC1NC(C)=O (centres undefined)
inactive: [17] 102 % of control | [10] 114 % of control | [18] 110 % of control | [11] 100 % of control | [19] 103 % of control | [20] 103 % of control

O=C1CSC(=S)N1c1ccco1
inactive: dose: 100.0 mg/kg/injection, schedule: Q01DX009 (ip), vehicle: saline 102 % of control | [10] 93 % of control | dose: 200.0 mg/kg/injection, schedule: Q01DX009 (ip), vehicle: saline 102 % of control | [11] 88 % of control | [20] 93 % of control

O=C(Nc1ccccc1CSc1nc2nc[nH]c(=O)c2[nH]1)c1ccc(S(=O)(=O)F)cc1
inactive: dose: 25.0 mg/kg/injection, schedule: Q01DX001 (ip), vehicle: Klucel (hydroxypropylcellulose) (HPC) 108 % of control | dose: 50.0 mg/kg/injection, schedule: Q01DX001 (ip), vehicle: Klucel (hydroxypropylcellulose) (HPC) 111 % of control | [14] 114 % of control

COc1ccccc1NC(=O)NCc1cc(C)ccc1C
inactive: [1] 93 % of control | [2] 88 % of control | [3] 93 % of control

O=C(COc1ccc(Cl)cc1Cl)Nc1ccc2ccccc2c1
inactive: [15] 95 % of control and 96 % of control | [16] 103 % of control | dose: 400.0 mg/kg/injection, schedule: Q04DX002 (ip), vehicle: saline 107 % of control and 92 % of control

CCCCCCCCCCCCCCCC[N+]1(Cc2ccccc2)CCOCC1
inactive: dose: 50.0 mg/kg/injection, schedule: Q01DX009 (ip), vehicle: Klucel (hydroxypropylcellulose) (HPC) 99 % of control | [1] 99 % of control

CCOC(=O)C(=CNc1ccc(OC)cc1[N+](=O)[O-])C(=O)OCC
inactive: dose: 12.5 mg/kg/injection, schedule: Q01DX009 (ip), vehicle: saline with Tween-80 97 % of control | dose: 25.0 mg/kg/injection, schedule: Q01DX009 (ip), vehicle: saline with Tween-80 90 % of control | [12] 94 % of control and 90 % of control | [4] 95 % of control | [13] 105 % of control | [5] 88 % of control | [6] 92 % of control

CCOC(=N)c1cn(C2OC(CO)C(O)C2O)c2ncnc(N)c12 (centres undefined)
inactive: dose: 0.12 mg/kg/injection, schedule: Q01DX009 (ip), vehicle: saline with Tween-80 120 % of control | dose: 0.12 mg/kg/injection, schedule: Q01DX009 (ip), vehicle: saline 109 % of control | dose: 0.18 mg/kg/injection, schedule: Q01DX009 (ip), vehicle: saline with Tween-80 120 % of control | dose: 0.18 mg/kg/injection, schedule: Q01DX009 (ip), vehicle: saline 123 % of control | dose: 0.27 mg/kg/injection, schedule: Q01DX009 (ip), vehicle: saline with Tween-80 117 % of control | dose: 0.27 mg/kg/injection, schedule: Q01DX009 (ip), vehicle: saline 121 % of control | dose: 0.6 mg/kg/injection, schedule: Q01DX009 (ip), vehicle: saline 118 % of control | dose: 0.9 mg/kg/injection, schedule: Q01DX009 (ip), vehicle: saline 112 % of control | dose: 1.3 mg/kg/injection, schedule: Q01DX009 (ip), vehicle: saline 96 % of control
